Data taken from PubChem BioAssay (NCI).
Several values for one entry are separate records, joined by “and”; a condition that tells them apart may be missing. Identical values can stand only once.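 Results reflect a 48-hour exposure of cells in 96-well plates to compound at five concentrations. GI50 marks 50% less growth. TGI is the concentration that stops growth completely.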

Legend:
Test in all cases: NCI anticancer screen, dose series, 48 h
[1] = system: A498 renal
[2] = system: EKVX NSCLC
[3] = system: HL-60(TB) leukemia
[4] = system: SF-268 CNS
[5] = system: MDA-MB-435
[6] = system: NCI-H226 lung
[7] = system: OVCAR-3 ovarian
[8] = system: SN12C renal
[9] = system: HOP-62 NSCLC
[10] = system: RPMI-8226 leukemia

| SMILES | TGI [1] | TGI [2] [µM] | TGI [3] | TGI [4] | TGI [5] | TGI [6] | TGI [7] | TGI [8] | TGI [9] | TGI [10] | GI50 [1] | GI50 [2] | GI50 [3] | GI50 [4] [µM] | GI50 [5] | GI50 [6] [µM] | GI50 [7] [µM] | GI50 [8] | GI50 [9] | GI50 [10] [µM] |
| --- | --- | --- | --- | --- | --- | --- | --- | --- | --- | --- | --- | --- | --- | --- | --- | --- | --- | --- | --- | --- |
| C=C1C(=O)O[C@@H]2/C=C(/C)[C@@H](OC(C)=O)C/C=C(\C)C(O)[C@@H](OC(=O)/C(C)=C\C)C12 (stereo partly drawn) | > 100 µM | > 100 | 49.6 µM | > 100 µM | 57.5 µM | > 100 µM | > 100 µM | 43.1 µM | > 100 µM | 60.7 µM | – | – | – | – | – | – | – | – | – | – |
| CN1CCN(C2=NC(=O)/C(=C\c3ccc(N(C)C)cc3)S2)CC1 | > 100 µM | > 100 | > 100 µM | > 100 µM | > 100 µM | > 100 µM | > 100 µM | > 100 µM | > 100 µM | > 100 µM | > 100 µM | > 100 µM | 46 µM | > 100 | > 100 µM | > 100 | > 100 | > 100 µM | > 100 µM | 32.5 |
| COc1ccc(-c2ccc(OC)c(OC)c2OC)cc1 | > 31.2 µM | > 100 | 9.93 µM | > 100 µM | 0.833 µM | > 100 µM | 4.49 µM | > 100 µM | > 100 µM | > 100 µM | 2.27 µM | 4.1 µM | 1.04 µM | 9.28 | 0.239 µM | 17.3 | 1.41 | 6.88 µM | 2.87 µM | 3.27 |
| OCC(O)C(O)C(O)C(/C=N\Nc1ncnc2c(Br)cc(Br)cc12)=N/Nc1ncnc2c(Br)cc(Br)cc12 (stereo not drawn) | 38.8 µM and > 100 µM | – | > 100 µM | 11.9 µM and > 100 µM | 21.7 µM and > 100 µM | 9.42 µM | 16.5 µM and > 100 µM | 18.8 µM and > 100 µM | – | > 100 µM | 22.5 µM and > 100 µM | 1.88 µM and 4.49 µM | 6.47 µM and 2.8 µM | – | 5.24 µM and 12.6 µM | – | – | 5.09 µM and 24.8 µM | 2.05 µM and 9.09 µM | 19.6 |
| CC(C)(C)C[C@H]1N[C@@H](C(=O)NC2CCC(O)CC2)[C@H](c2cccc(Cl)c2F)[C@@]12C(=O)Nc1cc(Cl)ccc12 (stereo partly drawn) | 10.3 µM | 14.2 | 7.06 µM | 25.8 µM | 16.6 µM | 1.04 µM | 21 µM | 21.2 µM | 27.7 µM | 8.41 µM | 1.11 µM | 3.15 µM | 2.66 µM | 12 | 4.8 µM | 0.238 | 8.68 | 6.26 µM | 11.5 µM | 2.63 |
| Cc1ccc(/C(=N/Nc2ccc([N+](=O)[O-])cc2)Sc2cc(Cl)c(C)cc2S(N)(=O)=O)cc1 | 4.55 µM | 9.12 | 42.1 µM | 7.37 µM | 3.89 µM | 3.57 µM | 2.61 µM | 3.95 µM | 5.34 µM | 4.27 µM | 1.87 µM | 3.14 µM | 11.9 µM | 1.91 | 1.73 µM | 1.64 | 1.22 | 1.69 µM | 2.35 µM | 1.82 |
| CCOc1c(Br)cc(Br)cc1C=C(C#N)C#N | 8.8 µM | > 10 | 1.19 µM | > 10 µM | > 10 µM | > 10 µM | > 10 µM | > 10 µM | > 10 µM | > 10 µM | – | – | – | – | – | – | – | – | – | – |
| CC1(C)CC(C)(C)c2cc(NC(=S)Nc3ccc([N+](=O)[O-])cc3)ccc2S1 | 19.1 µM | 29.7 | > 85.3 µM | > 53.7 µM | 30.5 µM | 38.5 µM | 31.2 µM | 22.2 µM | > 49.5 µM | 99.8 µM | 9.16 µM | 12.7 µM | 30.2 µM | 26.5 | 11.8 µM | 14.3 | 9.75 | 10.3 µM | 18.3 µM | 31 |
| CCCCCCCC(=O)OCC/C=C/C1OC1C1OC(=O)/C=C\C=C\C(=O)N(C(C)=O)C(=O)/C=C(/C)CCC2OC2C1OC(=O)NC(C)=O (stereo not drawn) | > 25 µM | > 25 | > 25 µM | 12.1 µM | 24.8 µM | > 25 µM | 8.4 µM | > 25 µM | > 25 µM | 4.03 µM | 22.6 µM | > 25 µM | 8.18 µM | 4.6 | 5.85 µM | 18.9 | 4.07 | 7.29 µM | 7.45 µM | 0.959 |
| Cc1cccc(C2NC(=O)c3ccccc3N2)c1 (stereo not drawn) | > 73.4 µM | > 100 | > 27.2 µM | > 100 µM | 2.77 µM | 50.5 µM | > 100 µM | > 100 µM | 97.1 µM | > 27 µM | – | – | – | – | – | – | – | – | – | – |
| COC1=CC(c2ccc[nH]2)=N/C1=C\c1[nH]c(C)c(C(=O)CCCCCCCCC(=O)O[C@H]2CC[C@H]3C4CCc5cc(O)ccc5C4CC[C@]23C)c1C (stereo partly drawn) | > 43.8 µM | > 50 | > 50 µM | > 50 µM | > 24.2 µM | > 11.4 µM | 15 µM | > 50 µM | 10.2 µM | > 50 µM | 1.28 µM | 0.461 µM | 0.289 µM | 0.429 | 0.272 µM | 2.99 | 0.493 | 0.6 µM | 0.483 µM | 1.63 |
| COc1cc(/C=N/NC(=O)c2cnn3c2NC(c2ccccc2)C3)ccc1OC1CCCC1 (stereo not drawn) | 2.28 µM | 14 | 3.93 µM | 13.1 µM | 1.28 µM | 6.12 µM | 0.697 µM | 9.61 µM | 6.47 µM | 4.91 µM | 0.407 µM | 1.51 µM | 0.384 µM | 1.88 | 0.258 µM | 1.64 | 0.262 | 1.85 µM | 0.83 µM | 0.527 |
| Cn1c(COC(=O)NCCn2ccnc2)nc2c(N3CCOCC3)nc(-c3ccccc3)nc21 | 2.53 µM | 2.65 | 2.48 µM | 2.66 µM | 2.08 µM | 3.6 µM | 0.367 µM | 2.06 µM | 3.9 µM | 1.05 µM | 1.25 µM | 1.26 µM | 0.615 µM | 1.29 | 0.694 µM | 1.72 | 0.174 | 0.727 µM | 1.54 µM | 0.222 |
| O=C1C(=O)c2c(nc3ccc(C(F)(F)F)cn23)-c2ccccc21 | 3.25 µM | 0.396 | 0.6 µM | 0.609 µM | 0.324 µM | 1.77 µM | 0.443 µM | 0.354 µM | 0.339 µM | 0.53 µM | 1.82 µM | 0.178 µM | 0.201 µM | 0.224 | 0.179 µM | 0.72 | 0.179 | 0.186 µM | 0.169 µM | 0.169 |
| COc1cc2c(/C=C3\C(=O)Nc4ccccc43)c[nH]c2cc1C | 16.5 µM | 26.5 | 4.45 µM | > 100 µM | 0.403 µM | 19.7 µM | 11.8 µM | 1.39 µM | 10.7 µM | 16.2 µM | < 0.0243 µM | 0.0559 µM | 0.494 µM | 0.861 | 0.0566 µM | 0.035 | 0.306 | 0.275 µM | < 0.01 µM | 0.0393 |
| C[C@@H]1C[C@@H]([C@H](O)CC2CC(=O)NC(=O)C2)C(=O)[C@@H](C)C1 | – | 4.45 | 2.14 µM and 0.43 µM | 1.94 µM | 4.09 µM | 7.26 µM and 4.86 µM | – | 7.38 µM and 0.793 µM | 3.63 µM and 1.67 µM | 3.02 µM and 0.494 µM | 0.854 µM | 0.341 µM | 0.202 µM | 0.264 | 0.233 µM | 0.326 | 0.675 | 0.106 µM | 0.26 µM | 0.451 |
